The record followed here is ChEMBL document CHEMBL5370556, “Optimization, and biological evaluation of 3-O-β-chacotriosyl betulinic acid amide derivatives as novel small-molecule Omicron” (Eur J Med Chem, 2023).

Structures are written as SMILES.

Data set [1] concerns SARS-CoV-2. Briefly: Antiviral activity against luciferase-expressing pseudovirus encoding SARS-CoV-2 Omicron expressing S protein infected in human 293T/ACE2 cells assessed as reduction of viral growth measured after 48 hrs by luciferase assay. Format: functional, organism-based. The following applies: Severe acute respiratory syndrome coronavirus 2, 293T/ACE2, 48 h.
The nature of data set [2]: Cytotoxicity against human 293T/ACE2 cells assessed as reduction in cell growth measured after 48 hrs by MTT assay. Format: functional.
Data set [3] in a line: Selectivity index, ratio of CC50 for human 293T/ACE2 cells to EC50 for SARS-CoV-2 Omicron. The class given is toxicity. To be noted: read-out: Ratio CC50/EC50.

As to `C=C(C)[C@@H]1CC[C@]2(C(=O)Nc3cccc(Cl)c3)CC[C@]3(C)[C@H](CC[C@@H]4[C@@]5(C)CC[C@H](O[C@@H]6O[C@H](CO)[C@@H](O[C@@H]7O[C@@H](C)[C@H](O)[C@@H](O)[C@H]7O)[C@H](O)[C@H]6O[C@@H]6O[C@@H](C)[C@H](O)[C@@H](O)[C@H]6O)C(C)(C)[C@@H]5CC[C@]43C)[C@@H]12`, in data set [1], the half-maximal effective concentration (EC50) amounted to 6.63 µM. For the same molecule, the CC50 in data set [2] is 56.4 µM. For the same molecule, the selectivity ratio in data set [3] is 8.51.

For the molecule `C=C(C)[C@@H]1CC[C@]2(C(=O)Nc3ccccc3OC)CC[C@]3(C)[C@H](CC[C@@H]4[C@@]5(C)CC[C@H](O[C@@H]6O[C@H](CO)[C@@H](O[C@@H]7O[C@@H](C)[C@H](O)[C@@H](O)[C@H]7O)[C@H](O)[C@H]6O[C@@H]6O[C@@H](C)[C@H](O)[C@@H](O)[C@H]6O)C(C)(C)[C@@H]5CC[C@]43C)[C@@H]12`, in data set [1], the EC50 came to 6.11 µM. For the same molecule, the CC50 in data set [2] was determined as 83.2 µM. Further, the selectivity ratio in data set [3] was 13.6. With `C=C(C)[C@@H]1CC[C@]2(C(=O)NCCc3ccccc3)CC[C@]3(C)[C@H](CC[C@@H]4[C@@]5(C)CC[C@H](O[C@@H]6O[C@H](CO)[C@@H](O[C@@H]7O[C@@H](C)[C@H](O)[C@@H](O)[C@H]7O)[C@H](O)[C@H]6O[C@@H]6O[C@@H](C)[C@H](O)[C@@H](O)[C@H]6O)C(C)(C)[C@@H]5CC[C@]43C)[C@@H]12`, in data set [1], the EC50 was determined as 8.47 µM. Besides, the half-maximal cytotoxic concentration (CC50) in data set [2] is 226 µM. Moreover, the selectivity ratio in data set [3] was 26.7. Regarding `C=C(C)[C@@H]1CC[C@]2(C(=O)NCc3ccccc3OC)CC[C@]3(C)[C@H](CC[C@@H]4[C@@]5(C)CC[C@H](O[C@@H]6O[C@H](CO)[C@@H](O[C@@H]7O[C@@H](C)[C@H](O)[C@@H](O)[C@H]7O)[C@H](O)[C@H]6O[C@@H]6O[C@@H](C)[C@H](O)[C@@H](O)[C@H]6O)C(C)(C)[C@@H]5CC[C@]43C)[C@@H]12`, the EC50 in data set [1] is > 20 µM. Consider `C=C(C)[C@@H]1CC[C@]2(C(=O)NCc3ccco3)CC[C@]3(C)[C@H](CC[C@@H]4[C@@]5(C)CC[C@H](O[C@@H]6O[C@H](CO)[C@@H](O[C@@H]7O[C@@H](C)[C@H](O)[C@@H](O)[C@H]7O)[C@H](O)[C@H]6O[C@@H]6O[C@@H](C)[C@H](O)[C@@H](O)[C@H]6O)C(C)(C)[C@@H]5CC[C@]43C)[C@@H]12`, for which, in data set [1], the 50% effective concentration (EC50) was > 20 µM. Regarding `C=C(C)[C@@H]1CC[C@]2(C(=O)NNCc3ccccc3)CC[C@]3(C)[C@H](CC[C@@H]4[C@@]5(C)CC[C@H](O[C@@H]6O[C@H](CO)[C@@H](O[C@@H]7O[C@@H](C)[C@H](O)[C@@H](O)[C@H]7O)[C@H](O)[C@H]6O[C@@H]6O[C@@H](C)[C@H](O)[C@@H](O)[C@H]6O)C(C)(C)[C@@H]5CC[C@]43C)[C@@H]12`, the 50% effective concentration (EC50) in data set [1] was > 20 µM. Still for that read-out and setting: the same measure for `C=C(C)[C@@H]1CC[C@]2(C(=O)Nc3ccc4sccc4c3)CC[C@]3(C)[C@H](CC[C@@H]4[C@@]5(C)CC[C@H](O[C@@H]6O[C@H](CO)[C@@H](O[C@@H]7O[C@@H](C)[C@H](O)[C@@H](O)[C@H]7O)[C@H](O)[C@H]6O[C@@H]6O[C@@H](C)[C@H](O)[C@@H](O)[C@H]6O)C(C)(C)[C@@H]5CC[C@]43C)[C@@H]12`: > 20 µM. With `C=C(C)[C@@H]1CC[C@]2(C(=O)NCc3ccc(-c4ccccc4)cc3)CC[C@]3(C)[C@H](CC[C@@H]4[C@@]5(C)CC[C@H](O[C@@H]6O[C@H](CO)[C@@H](O[C@@H]7O[C@@H](C)[C@H](O)[C@@H](O)[C@H]7O)[C@H](O)[C@H]6O[C@@H]6O[C@@H](C)[C@H](O)[C@@H](O)[C@H]6O)C(C)(C)[C@@H]5CC[C@]43C)[C@@H]12`, the half-maximal effective concentration (EC50) in data set [1] is > 20 µM. Regarding `C=C(C)[C@@H]1CC[C@]2(C(=O)Nc3ccc4c(cnn4C)c3)CC[C@]3(C)[C@H](CC[C@@H]4[C@@]5(C)CC[C@H](O[C@@H]6O[C@H](CO)[C@@H](O[C@@H]7O[C@@H](C)[C@H](O)[C@@H](O)[C@H]7O)[C@H](O)[C@H]6O[C@@H]6O[C@@H](C)[C@H](O)[C@@H](O)[C@H]6O)C(C)(C)[C@@H]5CC[C@]43C)[C@@H]12`, the concentration for a half-maximal effect (EC50) in data set [1] was > 20 µM. Consider `C=C(C)[C@@H]1CC[C@]2(C(=O)NCc3ccc(Cl)cc3)CC[C@]3(C)[C@H](CC[C@@H]4[C@@]5(C)CC[C@H](O[C@@H]6O[C@H](CO)[C@@H](O[C@@H]7O[C@@H](C)[C@H](O)[C@@H](O)[C@H]7O)[C@H](O)[C@H]6O[C@@H]6O[C@@H](C)[C@H](O)[C@@H](O)[C@H]6O)C(C)(C)[C@@H]5CC[C@]43C)[C@@H]12`, for which the EC50 in data set [1] was > 20 µM. Turning to `C=C(C)[C@@H]1CC[C@]2(C(=O)NCc3ccccc3Cl)CC[C@]3(C)[C@H](CC[C@@H]4[C@@]5(C)CC[C@H](O[C@@H]6O[C@H](CO)[C@@H](O[C@@H]7O[C@@H](C)[C@H](O)[C@@H](O)[C@H]7O)[C@H](O)[C@H]6O[C@@H]6O[C@@H](C)[C@H](O)[C@@H](O)[C@H]6O)C(C)(C)[C@@H]5CC[C@]43C)[C@@H]12`, in data set [1], the EC50 was > 20 µM. As to `C=C(C)[C@@H]1CC[C@]2(C(=O)NCC3CCCCC3)CC[C@]3(C)[C@H](CC[C@@H]4[C@@]5(C)CC[C@H](O[C@@H]6O[C@H](CO)[C@@H](O[C@@H]7O[C@@H](C)[C@H](O)[C@@H](O)[C@H]7O)[C@H](O)[C@H]6O[C@@H]6O[C@@H](C)[C@H](O)[C@@H](O)[C@H]6O)C(C)(C)[C@@H]5CC[C@]43C)[C@@H]12`, the EC50 in data set [1] is > 20 µM.

As for `C=C(C)[C@@H]1CC[C@]2(C(=O)NCc3ccc(OC)cc3)CC[C@]3(C)[C@H](CC[C@@H]4[C@@]5(C)CC[C@H](O[C@@H]6O[C@H](CO)[C@@H](O[C@@H]7O[C@@H](C)[C@H](O)[C@@H](O)[C@H]7O)[C@H](O)[C@H]6O[C@@H]6O[C@@H](C)[C@H](O)[C@@H](O)[C@H]6O)C(C)(C)[C@@H]5CC[C@]43C)[C@@H]12`, in data set [1], the EC50 was > 20 µM.

Take `C=C(C)[C@@H]1CC[C@]2(C(=O)NCc3cccc(Cl)c3)CC[C@]3(C)[C@H](CC[C@@H]4[C@@]5(C)CC[C@H](O[C@@H]6O[C@H](CO)[C@@H](O[C@@H]7O[C@@H](C)[C@H](O)[C@@H](O)[C@H]7O)[C@H](O)[C@H]6O[C@@H]6O[C@@H](C)[C@H](O)[C@@H](O)[C@H]6O)C(C)(C)[C@@H]5CC[C@]43C)[C@@H]12`: the EC50 in data set [1] is > 20 µM. As to `C=C(C)[C@@H]1CC[C@]2(C(=O)NNc3ccccc3)CC[C@]3(C)[C@H](CC[C@@H]4[C@@]5(C)CC[C@H](O[C@@H]6O[C@H](CO)[C@@H](O[C@@H]7O[C@@H](C)[C@H](O)[C@@H](O)[C@H]7O)[C@H](O)[C@H]6O[C@@H]6O[C@@H](C)[C@H](O)[C@@H](O)[C@H]6O)C(C)(C)[C@@H]5CC[C@]43C)[C@@H]12`, the EC50 in data set [1] was > 20 µM. On to `C=C(C)[C@@H]1CC[C@]2(C(=O)NCc3cccc(OC)c3)CC[C@]3(C)[C@H](CC[C@@H]4[C@@]5(C)CC[C@H](O[C@@H]6O[C@H](CO)[C@@H](O[C@@H]7O[C@@H](C)[C@H](O)[C@@H](O)[C@H]7O)[C@H](O)[C@H]6O[C@@H]6O[C@@H](C)[C@H](O)[C@@H](O)[C@H]6O)C(C)(C)[C@@H]5CC[C@]43C)[C@@H]12`, for which the EC50 in data set [1] was > 20 µM.
